From patent publication US20070161592A1, “Method of treating fear” (priority 2005, published 2007)

Key:
NR1/NR2A = conditions: cited from earlier work
[1] = tested on: pyramidal neurons in layer II/III of ACC slices; test: LTP induced by pairing training, whole-cell patch-clamp recordings in ACC slices; format: cell-based, mouse
Experimental: Experiments were performed in a recording chamber on the stage of an Axioskop 2FS microscope with infrared DIC optics for visualizing whole-cell patch clamp recordings. EPSCs were recorded from layer II-III neurons using an Axon 200B amplifier (Axon Instruments, CA) and stimulations were delivered using a bipolar tungsten stimulating electrode placed in layer V of the ACC. In hippocampal slices, EPSCs were evoked by stimulating the Schaffer collateral-commissural pathway. EPSCs were induced by repetitive stimulations at 0.02 Hz and neurons were voltage clamped at −70 mV. […] The first protocol involved paired presynaptic 80 pulses at 2 Hz with postsynaptic depolarization at +30 mV (referred to as pairing training). The second involved paired 3 presynaptic stimuli that caused 3 EPSPs (10 ms ahead) with 3 postsynaptic APs at 30 Hz, paired 15 times every 5 s (named as EPSPs-APs protocol). The third involved theta-burst stimulation (5 trains of burst with 4 pulses at 100 Hz, at 200 ms interval; repeated 4 times at intervals of 10 s; named as TBS). The NMDAR-mediated component of EPSCs was pharmacologically isolated in Mg^2+-free ACSF containing: CNQX (20 μM), glycine (1 μM) and picrotoxin (100 μM). […] Neurons were voltage clamped at −60 mV and NMDARs-mediated EPSCs were evoked at 0.05 Hz. Picrotoxin (100 μM) was always present to block GABAA receptor-mediated inhibitory synaptic currents. The access resistance was 15-30 MΩ and was monitored throughout the experiment. […] Results are expressed as means±SEM. Statistical comparisons were performed using the Student t-test.
Whole-cell patch-clamp recordings were conducted in visually identified pyramidal neurons in layer II/III of ACC slices. Pyramidal neurons were identified by injecting depolarized currents into neurons to induce action potentials. […] Pyramidal neurons were also identified based on the pyramid shape of their somata by putting Lucifer yellow into the intracellular solution (FIG. 1A).

adult ACC neurons [2] = test: LTP induced by theta-burst stimulation (TBS) in ACC slices; format: cell-based, mouse; conditions: 0.4 μM
Experimental: (§1) Coronal brain slices ([…]) from 6-8-week-old C57BL/6 mice, containing ACC or hippocampus, were prepared using standard methods (Wei et al., 2001). Slices were transferred to a submerged recovery chamber containing oxygenated (95% O2 and 5% CO2) artificial cerebrospinal fluid (ACSF) (in mM: 124 NaCl, 4.4 KCl, 2 CaCl2, 1 MgSO4, 25 NaHCO3, 1 NaH2PO4, 10 glucose) at room temperature for at least 1 h.
(§2) Experiments were performed in a recording chamber on the stage of an Axioskop 2FS microscope with infrared DIC optics for visualizing whole-cell patch clamp recordings. EPSCs were recorded from layer II-III neurons using an Axon 200B amplifier (Axon Instruments, CA) and stimulations were delivered using a bipolar tungsten stimulating electrode placed in layer V of the ACC. In hippocampal slices, EPSCs were evoked by stimulating the Schaffer collateral-commissural pathway. EPSCs were induced by repetitive stimulations at 0.02 Hz and neurons were voltage clamped at −70 mV. The recording pipettes (3-5 MΩ) were filled with solution containing (mM) 145 K-gluconate, 5 NaCl, 1 MgCl2, 0.2 EGTA, 10 HEPES, 2 Mg-ATP, and 0.1 Na3-GTP (adjusted to pH 7.2 with KOH). After obtaining stable EPSCs for 10 min, three kinds of LTP induction paradigms were used within 12 min after establishing the whole-cell configuration to prevent wash out effect on LTP induction (Tsvetkov et al., 2002). The first protocol involved paired presynaptic 80 pulses at 2 Hz with postsynaptic depolarization at +30 mV (referred to as pairing training). The second involved paired 3 presynaptic stimuli that caused 3 EPSPs (10 ms ahead) with 3 postsynaptic APs at 30 Hz, paired 15 times every 5 s (named as EPSPs-APs protocol). The third involved theta-burst stimulation (5 trains of burst with 4 pulses at 100 Hz, at 200 ms interval; repeated 4 times at intervals of 10 s; named as TBS). The NMDAR-mediated component of EPSCs was pharmacologically isolated in Mg^2+-free ACSF containing: CNQX (20 μM), glycine (1 μM) and picrotoxin (100 μM). The patch electrodes contained (in mM) 102 cesium gluconate, 5 TEA-chloride, 3.7 NaCl, 11 BAPTA, 0.2 EGTA, 20 HEPES, 2 MgATP, 0.3 NaGTP, and 5 QX-314 chloride (adjusted to pH 7.2 with CsOH). Neurons were voltage clamped at −60 mV and NMDARs-mediated EPSCs were evoked at 0.05 Hz. Picrotoxin (100 μM) was always present to block GABAA receptor-mediated inhibitory synaptic currents. The access resistance was 15-30 MΩ and was monitored throughout the experiment. Data were discarded if access resistance changed by more than 15% during an experiment. Results are expressed as means±SEM. Statistical comparisons were performed using the Student t-test. […]

NR1/NR2B = conditions: cited from earlier work
[3] = tested on: NMDAR-mediated currents in the hippocampus; test: NMDAR-mediated EPSCs in hippocampal CA1 neurons; format: cell-based, mouse; conditions: for depression of total NMDAR-mediated currents: hippocampal CA1 neurons
Experimental: as §1
(§3) Experiments were performed in a recording chamber on the stage of an Axioskop 2FS microscope with infrared DIC optics for visualizing whole-cell patch clamp recordings. EPSCs were recorded from layer II-III neurons using an Axon 200B amplifier (Axon Instruments, CA) and stimulations were delivered using a bipolar tungsten stimulating electrode placed in layer V of the ACC. In hippocampal slices, EPSCs were evoked by stimulating the Schaffer collateral-commissural pathway. EPSCs were induced by repetitive stimulations at 0.02 Hz and neurons were voltage clamped at −70 mV. The recording pipettes (3-5 MΩ) were filled with solution containing (mM) 145 K-gluconate, 5 NaCl, 1 MgCl2, 0.2 EGTA, 10 HEPES, 2 Mg-ATP, and 0.1 Na3-GTP (adjusted to pH 7.2 with KOH). After obtaining stable EPSCs for 10 min, three kinds of LTP induction paradigms were used within 12 min after establishing the whole-cell configuration to prevent wash out effect on LTP induction (Tsvetkov et al., 2002). The first protocol involved paired presynaptic 80 pulses at 2 Hz with postsynaptic depolarization at +30 mV (referred to as pairing training). The second involved paired 3 presynaptic stimuli that caused 3 EPSPs (10 ms ahead) with 3 postsynaptic APs at 30 Hz, paired 15 times every 5 s (named as EPSPs-APs protocol). The third involved theta-burst stimulation (5 trains of burst with 4 pulses at 100 Hz, at 200 ms interval; repeated 4 times at intervals of 10 s; named as TBS). The NMDAR-mediated component of EPSCs was pharmacologically isolated in Mg^2+-free ACSF containing: CNQX (20 μM), glycine (1 μM) and picrotoxin (100 μM). The patch electrodes contained (in mM) 102 cesium gluconate, 5 TEA-chloride, 3.7 NaCl, 11 BAPTA, 0.2 EGTA, 20 HEPES, 2 MgATP, 0.3 NaGTP, and 5 QX-314 chloride (adjusted to pH 7.2 with CsOH). Neurons were voltage clamped at −60 mV and NMDARs-mediated EPSCs were evoked at 0.05 Hz. Picrotoxin (100 μM) was always present to block GABAA receptor-mediated inhibitory synaptic currents. The access resistance was 15-30 MΩ and was monitored throughout the experiment. Data were discarded if access resistance changed by more than 15% during an experiment. Results are expressed as means±SEM. Statistical comparisons were performed using the Student t-test.
(§4) One possible mechanism is that NR2B-containing receptors may contribute more to total NMDA currents in ACC synapses than in hippocampal synapses. […] Application of 0.1 μM or 0.4 μM NVP-AAM077 depressed total NMDAR-mediated currents by 59.0±4.3% (n=5) and 63.2±1.7% (n=6) in the ACC respectively (FIG. 5). On the other hand, application of 0.3 μM or 3 μM Ro25-6981 attenuated total NMDAR-mediated currents by 18.0±1.9% (n=5) and 18.1±3.4% (n=7) in the ACC respectively, showing that 0.3 μM Ro25-6981 was sufficient to block the NR2B-mediated currents (FIG. 5). This experiment was repeated in hippocampal CA1 neurons. […] However, unlike in the ACC, application of 0.3 μM Ro25-6981 alone potentiated, rather than blocked, total NMDAR-mediated currents by 51.3±16.4% in the hippocampus (FIG. 5).
The same experiment was repeated in the hippocampus.

adult ACC neurons [4] = test: LTP induced by EPSPs-APs protocol in ACC slices; format: cell-based, mouse; conditions: 0.4 μM
Experimental: as §1, §2

[5] = tested on: NMDAR-mediated currents in the ACC; test: NMDAR-mediated EPSCs in the ACC; format: cell-based, mouse
Experimental: as §1, §3, §4
The relative percentages of NR2A- and NR2B-mediated currents were determined by applying specific antagonists, NVP-AAM077 (0.4 μM) and Ro25-6981 (0.3 μM). The concentrations used here were based on the results from FIG. 5 and a recent study performed in the hippocampus (Liu et al., 2004). Application of NVP-AAMO77 depressed total NMDAR-mediated currents by 63.2±1.7% and the addition of Ro25-6981 to the same neuron further reduced currents by 13.7±1.4% (n=6) in the ACC (FIG. 6). […]

NMDAR-mediated signaling = conditions: intra-hippocampal injections; cited from earlier work
[6] = FIG. 1E/F, BAPTA in the intracellular solution

C[C@H](NC(c1cccc2[nH]c(=O)c(=O)[nH]c12)P(=O)(O)O)c1ccc(Br)cc1 (some centres unmarked) [NVP-AAM077]
IC50 (NR1/NR2A): 14 nM | synaptic responses after pairing training (LTP), % of baseline ([1]; 0.1 μM): 134.9±6.9% | effect on LTP induced by pairing training ([1]; 0.1 μM, FIG. 3): partially depressed | synaptic responses after pairing training (LTP), % of baseline ([1]; 0.4 μM): 131.6±11.9% | effect on LTP induced by pairing training ([1]; 0.4 μM, FIG. 3): partially depressed | LTP after TBS, % of baseline (adult ACC neurons [2]): 97.0±13.4% | effect on LTP induced by TBS (adult ACC neurons [2]; FIG. 4F): blocked | IC50 (NR1/NR2B): 1800 nM | depression of total NMDAR-mediated currents ([3]; 0.1 μM): 54.4±3.2% | depression of total NMDAR-mediated currents ([3]; 0.4 μM): 73.1±1.7% | effect on total NMDAR-mediated currents ([3]; hippocampus, bath application, FIG. 5): depressed | potentiation after EPSPs-APs protocol, % of baseline (adult ACC neurons [4]): 102.0±11.5% | effect on LTP induced by EPSPs-APs protocol (adult ACC neurons [4]; FIG. 4C): blocked | depression of total NMDAR-mediated currents ([5]; 0.1 μM): 59.0±4.3% | depression of total NMDAR-mediated currents ([5]; 0.4 μM NVP-AAM077 added after first applying 0.3 μM Ro25-6981): 64.2±3.0% | depression of total NMDAR-mediated currents ([5]; 0.4 μM, applied alone or first): 63.2±1.7% | effect on total NMDAR-mediated currents ([5]; bath application of different doses, FIG. 5): depressed

O=C(O)CN(CC(=O)O)c1ccccc1OCCOc1ccccc1N(CC(=O)O)CC(=O)O [BAPTA]
synaptic responses after pairing training (LTP), % of baseline ([1]; 11 mM BAPTA in the pipette solution): 106.1±10.3% | effect on LTP induced by pairing training [1, 6]: completely blocked

CC(C(O)c1ccc(O)cc1)N1CCC(Cc2ccccc2)CC1 (centres unmarked) [ifenprodil]
IC50 (NR1/NR2A): 146000 nM | synaptic responses after pairing training (LTP), % of baseline ([1]; 3 μM): 128.1±7.4% | effect on LTP induced by pairing training ([1]; 3 μM, FIG. 3): partially depressed | IC50 (NR1/NR2B): 340 nM

NC(CCCP(=O)(O)O)C(=O)O (centres unmarked) [AP-5]
synaptic responses after pairing training (LTP), % of baseline ([1]; AP-5 50 μM): 97.8±5.7% | effect on LTP induced by pairing training [1, 6]: completely blocked

C[C@]12N[C@H](Cc3ccccc31)c1ccccc12 [MK-801]
contextual freezing (NMDAR-mediated signaling): reduced contextual freezing
